Experimental data from patent US7371733B2, “Anti bacterial compounds” (Utah State University, priority 2006, dated 2008).
In brackets after ≈: the same amount, converted by molar mass. Where two headings read alike, the source gives them in different places.

Experiments:
[1] = tested on: Pseudomonas aeruginosa (ATCC 27853); conditions: for Minimum Inhibitory Concentrations (MIC): Table 2 entry 9, Pseudomonas aeruginosa (ATCC 27853)
Excerpt: (§1) E. coli (pSF815) and E. coli (pTZ19U-3) are laboratory resistant strains using E. coli (TG1) as the host.

E. coli (TG1) (pTZ19U-3) [2] = conditions: for Minimum Inhibitory Concentrations (MIC): Table 2 entry 4, E. coli (TG1) pTZ19U-3 plasmid encoded for APH(3′)-I; for Minimum Inhibitory Concentration: Table 1, E. coli (TG1) (pTZ19U-3), plasmid encoded for APH(3′)-I
Description: (§2) After the synthesis was completed, both representative aminoglycosides were assayed in standard dilution and diffusion assay against aminoglycoside susceptible and resistant strains of Escherichia coli using amikacin, kanamycin, ribostamycin, and butirosin as the controls. One resistant strain is equipped with the pTZ19-3 plasmid encoded for APH(3′)-I, which renders resistance to kanamycin, neomycin, lividomycin, paromomycin, and ribostamycin. The other resistant strain is equipped with the pSF815 plasmid encoded for AAC(6′) and APH(2″), which produces a bifunctional enzyme that catalyzes acetylation of amino group at C-6′ and phosphorylation of hydroxyl group at C-2″ position. This bifunctional enzyme enables bacteria to acquire resistance against gentamycin, amikacin, tobramycin, netilmicin, and kanamycin.
as §1

[3] = tested on: K. pneumoniae (ATCC 13883); assay: MIC, standard reference strain; conditions: for Minimum Inhibitory Concentrations (MIC): Table 2 entry 6, K. pneumoniae (ATCC 13883); for MIC: Klebsiella pneumoniae, ATCC13883, read-out: Minimum Inhibitory Concentrations (MIC)
Excerpt: as §1

[4] = tested on: Escherichia coli (ATCC 25922); assay: MIC, standard reference strain; conditions: for Minimum Inhibitory Concentrations (MIC): Table 2 entry 1, Escherichia coli (ATCC 25922); for MIC: Escherichia coli, ATCC25922, read-out: Minimum Inhibitory Concentrations (MIC)
Excerpt: as §1

E. coli (TG1) (pSF815) [5] = conditions: for Minimum Inhibitory Concentrations (MIC): Table 2 entry 3, E. coli (TG1) pSF815 plasmid encoded for AAC(6′)/APH(2″); for Minimum Inhibitory Concentration: Table 1, E. coli (TG1) (pSF815), plasmid encoded for AAC6′/APH2″
Description: as §2, §1

S. aureus (ATCC 25923) = assay: MIC, standard reference strain; conditions: for Minimum Inhibitory Concentrations (MIC): Table 2 entry 8, S. aureus (ATCC 25923); for MIC: Staphylococcus aureus, ATCC25923, read-out: Minimum Inhibitory Concentrations (MIC)
[6] = tested on: Klebsiella pneumoniae (ATCC 700603); conditions: Table 2 entry 5
Excerpt: as §1

E. coli (TG1) = assay: MIC, standard dilution and diffusion assay, aminoglycoside susceptible strain; conditions: for Minimum Inhibitory Concentrations (MIC): Table 2 entry 2, E. coli (TG1) aminoglycoside susceptible strain; for MIC: Escherichia coli
Description: as §2, §1

[7] = tested on: Staphylococcus aureus (ATCC 33591) (MRSA); assay: MIC, methicillin-resistant S. aureus; conditions: for Minimum Inhibitory Concentrations (MIC): Table 2 entry 7, Staphylococcus aureus (ATCC 33591) (MRSA); for MIC: Staphylococcus aureus, ATCC33591|MRSA, read-out: Minimum Inhibitory Concentrations (MIC)
Excerpt: as §1

E. coli (TG1) (pTZ19U-3) [8] = assay: microbe, parasite or virus in culture; conditions: Escherichia coli
Description: as §2, §1

E. coli (TG1) (pSF815) [9] = assay: microbe, parasite or virus in culture; conditions: Escherichia coli
Description: as §2, §1

[10] = tested on: Klebsiella pneumoniae (ATCC 700603); assay: microbe, parasite or virus in culture; conditions: ATCC700603, read-out: Minimum Inhibitory Concentrations (MIC)
Excerpt: as §1

[11] = tested on: Pseudomonas aeruginosa (ATCC 27853); assay: microbe, parasite or virus in culture; conditions: ATCC27853, read-out: Minimum Inhibitory Concentrations (MIC)
Excerpt: as §1

[12] = read-out: Minimum Inhibitory Concentration
[13] = read-out: Minimum Inhibitory Concentrations (MIC)

| Compound | Minimum Inhibitory Concentrations (MIC) [1] | Minimum Inhibitory Concentrations (MIC) [6] | Minimum Inhibitory Concentrations (MIC) [7] | MIC (E. coli (TG1) (pTZ19U-3) [8]; [12]) | MIC (E. coli (TG1); [12]) | MIC (E. coli (TG1) (pTZ19U-3) [8]; [13]) | MIC [3] | MIC (E. coli (TG1) (pSF815) [9]; [13]) | MIC [10] | MIC (E. coli (TG1); [13]) | MIC (E. coli (TG1) (pSF815) [9]; [12]) | also measured |
| --- | --- | --- | --- | --- | --- | --- | --- | --- | --- | --- | --- | --- |
| neomycin | Inactive | Inactive | Inactive | – | – | – | – | – | – | – | – | Minimum Inhibitory Concentrations (MIC) (E. coli (TG1) (pTZ19U-3) [2]): Inactive; Minimum Inhibitory Concentrations (MIC) [3]: 2 µg/mL; Minimum Inhibitory Concentrations (MIC) [4]: 4 µg/mL; Minimum Inhibitory Concentrations (MIC) (E. coli (TG1) (pSF815) [5]): 2 µg/mL; Minimum Inhibitory Concentrations (MIC) (S. aureus (ATCC 25923)): 1 µg/mL; Minimum Inhibitory Concentrations (MIC) (E. coli (TG1)): 8 µg/mL |
| CC1O[C@@H](O[C@@H]2C(O)C(N)CC(N)C2O[C@H]2OC(CN)[C@@H](O)C(O)C2N)C(O)C(O)[C@@H]1N (stereo partly shown) [TC005, pyranmycin] | – | – | – | 8 µg/mL (≈ 17.1 µM) | 8 µg/mL (≈ 17.1 µM) | – | – | – | – | – | – | Minimum Inhibitory Concentration (E. coli (TG1) (pSF815) [5]): Inactive |
| butirosin | Inactive | 0.5 µg/mL | Inactive | – | – | – | – | – | – | – | – | Minimum Inhibitory Concentration (E. coli (TG1) (pTZ19U-3) [2]): 0.5 µg/mL; Minimum Inhibitory Concentrations (MIC) (E. coli (TG1) (pTZ19U-3) [2]): 0.5 µg/mL; Minimum Inhibitory Concentrations (MIC) [3]: 0.5 to 1 µg/mL; Minimum Inhibitory Concentrations (MIC) [4]: 2 µg/mL; Minimum Inhibitory Concentration (E. coli (TG1) (pSF815) [5]): 0.5 µg/mL; Minimum Inhibitory Concentrations (MIC) (E. coli (TG1) (pSF815) [5]): 0.25 µg/mL; Minimum Inhibitory Concentrations (MIC) (S. aureus (ATCC 25923)): 2 µg/mL; Minimum Inhibitory Concentration (E. coli (TG1); Table 1, E. coli (TG1)): 0.5 µg/mL; Minimum Inhibitory Concentrations (MIC) (E. coli (TG1)): 1 µg/mL |
| C[C@H]1O[C@@H](O[C@@H]2[C@@H](O)[C@H](NC(=O)[C@@H](O)CCN)C[C@H](N)[C@H]2O[C@H]2O[C@H](CN)CC[C@H]2N)[C@H](O)[C@@H](O)[C@@H]1N [pyrankacin] | – | – | – | – | – | 1 µg/mL (≈ 1.86 µM) | 2 µg/mL (≈ 3.73 µM) | 1 µg/mL (≈ 1.86 µM) | 1 µg/mL (≈ 1.86 µM) | 4 µg/mL (≈ 7.45 µM) | – | activity against P. aeruginosa, in words ([1]; text statement summarising Table 2): active; MIC [4]: 4 µg/mL (≈ 7.45 µM); MIC (S. aureus (ATCC 25923)): 2 µg/mL (≈ 3.73 µM); MIC [7]: 8 µg/mL (≈ 14.9 µM); MIC [11]: 2 µg/mL (≈ 3.73 µM) |
| NCC[C@H](O)C(=O)N[C@@H]1C[C@H](N)[C@@H](O[C@H]2O[C@H](CN)[C@@H](O)[C@H](O)[C@H]2O)[C@H](O)[C@H]1O[C@H]1O[C@H](CO)[C@@H](O)[C@H](N)[C@H]1O [Amikacin, amikacin] | – | – | – | 0.5 µg/mL (≈ 0.854 µM) | 1 µg/mL (≈ 1.71 µM) | 0.5 µg/mL (≈ 0.854 µM) | 1 µg/mL (≈ 1.71 µM) | 1 µg/mL (≈ 1.71 µM) | 0.5 to 1 µg/mL (≈ 0.854 to 1.71 µM) | 1 µg/mL (≈ 1.71 µM) | 1 µg/mL (≈ 1.71 µM) | MIC [4]: 1 µg/mL (≈ 1.71 µM); MIC (S. aureus (ATCC 25923)): 1 µg/mL (≈ 1.71 µM); MIC [7]: 16 µg/mL (≈ 27.3 µM); MIC [11]: 0.5 to 1 µg/mL (≈ 0.854 to 1.71 µM) |
| CC1O[C@@H](O[C@@H]2C(OCCN)C(N)CC(N)C2O[C@H]2OC(CN)[C@@H](O)C(O)C2N)C(O)C(O)[C@@H]1N (stereo partly shown) [TC050] | – | – | – | 8 µg/mL (≈ 15.7 µM) | 8 µg/mL (≈ 15.7 µM) | – | – | – | – | – | – | Minimum Inhibitory Concentration (E. coli (TG1) (pSF815) [5]): Inactive |
| gentamicin | 0.5 to 1 µg/mL | 8 to 16 µg/mL | 4 µg/mL | – | – | – | – | – | – | – | – | Minimum Inhibitory Concentrations (MIC) (E. coli (TG1) (pTZ19U-3) [2]): 1 µg/mL; Minimum Inhibitory Concentrations (MIC) [3]: 1 µg/mL; Minimum Inhibitory Concentrations (MIC) [4]: 2 µg/mL; Minimum Inhibitory Concentrations (MIC) (E. coli (TG1) (pSF815) [5]): Inactive ^k; Minimum Inhibitory Concentrations (MIC) (S. aureus (ATCC 25923)): 0.5 µg/mL; Minimum Inhibitory Concentrations (MIC) (E. coli (TG1)): 2 µg/mL |
| NC[C@H]1O[C@H](O[C@H]2[C@H](O[C@@H]3O[C@H](CO)[C@@H](O)[C@H]3O)[C@@H](O)[C@H](N)C[C@@H]2N)[C@H](N)[C@@H](O)[C@@H]1O [Ribostamycin, ribostamycin] | Inactive | Inactive | Inactive | – | 2 µg/mL (≈ 4.4 µM) | 32 µg/mL (≈ 70.4 µM) | 4 µg/mL (≈ 8.8 µM) | 16 µg/mL (≈ 35.2 µM) | – | 2 µg/mL (≈ 4.4 µM) | 16 µg/mL (≈ 35.2 µM) | Minimum Inhibitory Concentration (E. coli (TG1) (pTZ19U-3) [2]): Inactive; MIC [4]: 8 µg/mL (≈ 17.6 µM); MIC (S. aureus (ATCC 25923)): 8 µg/mL (≈ 17.6 µM) |
| CC1O[C@@H](O[C@@H]2C(O)[C@H](NC(=O)[C@@H](O)CCN)CC(N)[C@H]2O[C@H]2OC(CN)[C@@H](O)[C@H](O)C2N)C(O)[C@@H](O)[C@@H]1N (stereo partly shown) [JT005] | Inactive | – | Inactive | 4 µg/mL (≈ 7.03 µM) | 4 µg/mL (≈ 7.03 µM) | 4 µg/mL (≈ 7.03 µM) | 2 µg/mL (≈ 3.52 µM) | 4 µg/mL (≈ 7.03 µM) | 1 to 2 µg/mL (≈ 1.76 to 3.52 µM) | 4 µg/mL (≈ 7.03 µM) | 4 µg/mL (≈ 7.03 µM) | – |
| CC1O[C@@H](O[C@H]2C(O[C@H]3OC(CN)CCC3N)C(N)C[C@@H](N)C2O)C(O)[C@@H](O)[C@@H]1N (stereo partly shown) [RR501, 3′,4′-Dideoxy Pyranmycin] | Inactive | – | – | 4 µg/mL (≈ 9.18 µM) | 8 µg/mL (≈ 18.4 µM) | 4 µg/mL (≈ 9.18 µM) | 2 to 4 µg/mL (≈ 4.59 to 9.18 µM) | 4 µg/mL (≈ 9.18 µM) | 2 to 4 µg/mL (≈ 4.59 to 9.18 µM) | 8 µg/mL (≈ 18.4 µM) | 4 µg/mL (≈ 9.18 µM) | activity against resistant bacteria equipped with APH(3′), in words (E. coli (TG1) (pTZ19U-3) [2]; text statement summarising Table 1): active; MIC [7]: 4 µg/mL (≈ 9.18 µM) |
| CC1O[C@@H](O[C@H]2C(O[C@H]3OC(CN)[C@@H](O)[C@H](O)C3N)C(N)C[C@@H](NC(=O)[C@@H](O)CCN)C2OCCN)C(O)[C@@H](O)[C@@H]1N (stereo partly shown) [JT050] | – | – | – | 4 µg/mL (≈ 6.54 µM) | 8 µg/mL (≈ 13.1 µM) | – | – | – | – | – | 2 µg/mL (≈ 3.27 µM) | – |
